Results published in US20030114441A1, “Heterocyclic anti-epileptogenic agents and methods of use thereof” (Queen's University at Kingston, priority 2001, published 2003).

Legend:
MES-induced seizure = assay: Maximal electroshock seizure test (MES); assay type: in vivo, male Carworth Farms #1 mice or male Sprague-Dawley rats; set-up: key to MES 0.5 hr / MES 4 hr: — = no activity; details: for MES 0.5 hr / MES 4 hr: i.p. at 300, 100 and 30 mg/kg; for MES 0.5 hr: stimulus 0.5 hr after administration; for MES 4 hr: stimulus 4 hr after administration
Method: The MES and PTZ assays were performed by the Anticonvulsant Drug Development (ADD) Program in the Epilepsy Branch of the NIH (see, e.g., Stables and Kupferberg (1997) The NIH anticonvulsant Drug Development (ADD) Program: Preclinical Anticonvulsant Screening Project, Libby & Sons). All compounds were tested with either male Carworth Farms #1 mice or male Sprague-Dawley rats. Each test compound was administered via an i.p. injection at 300, 100, and 30 mg/kg. For the maximal electroshock seizure test (MES), corneal electrodes primed with a drop of electrolyte solution (0.9% NaCl) are applied to the eyes of the animal and an electrical stimulus (50 mA for mice, 150 mA for rats; 60 Hz) is delivered for 0.2 seconds at 0.5 and 4.0 hours after test compound administration. The animals are restrained by hand and are released at the moment of stimulation in order to permit observation of the seizure.

PTZ-induced seizure = assay: Subcutaneous pentylenetetrazole (PTZ)-induced seizure model; assay type: in vivo, male Carworth Farms #1 mice or male Sprague-Dawley rats; set-up: key to PTZ 0.5 hr / PTZ 4 hr: — = no activity; details: for PTZ 0.5 hr / PTZ 4 hr: i.p. at 300, 100 and 30 mg/kg; for PTZ 0.5 hr: PTZ 0.5 hr after administration; for PTZ 4 hr: PTZ 4 hr after administration
Method: The MES and PTZ assays were performed by the Anticonvulsant Drug Development (ADD) Program in the Epilepsy Branch of the NIH (see, e.g., Stables and Kupferberg (1997) The NIH anticonvulsant Drug Development (ADD) Program: Preclinical Anticonvulsant Screening Project, Libby & Sons). All compounds were tested with either male Carworth Farms #1 mice or male Sprague-Dawley rats. Each test compound was administered via an i.p. injection at 300, 100, and 30 mg/kg. In the subcutaneous pentylenetetrazole (PTZ)-induced seizure model, seizures are induced 0.5 and 4 hrs after test compound administration by i.p. injection of PTZ (85 mg/kg in mice and 70 mg/kg in rats). Protection is defined as the inhibition of clonic spasms over a 30 min observation period.

[1] = system: pilocarpine-induced seizures; assay: Pilocarpine assay (seizure model); assay type: in vivo, adult male Sprague-Dawley rats; details: 100 mg/kg i.p., 20 min before pilocarpine hydrochloride 350 mg/kg i.p.; 30 minute observation
Method: A seizure model is performed using adult male Sprague-Dawley rats in accordance with the guidelines of the Canada Council on Animal Care and under the supervision of the Queen's University Animal Ethics Committee. This test procedure was adopted from previous work by Turski et al. (1984) Brain Res. 321:237. The test compounds are administered at 100 mg/kg by intraperitoneal (i.p.) injection. Seizures are induced 20 minutes afterwards by i.p. administration of pilocarpine hydrochloride (350 mg/kg). Protection is defined as the absence of clonic spasms over a 30 minute observation period after pilocarpine administration.

[2] = system: spontaneous recurrent seizures; assay: Spontaneous recurrent seizures (SRS) model of epilepsy; assay type: in vivo, adult male Sprague-Dawley rat; details: 20 mg/kg/day i.v. for 10 day
Method: The “spontaneous recurrent seizures” (SRS) model of epilepsy is used to evaluate candidate compounds in a model for Phase 1 epileptogenesis (see, e.g., Mello, E. et al., Epilepsia (1993) 34:985; Cavalheiro, J. et al., Epilepsia (1991) 32:778). In the SRS model, an adult male Sprague-Dawley rat (c. 260 g) is given pilocarpine by injection (380 mg/kg i.p.). Within 25 minutes, the animal enters status epilepticus, which lasts for 3 hours, and then diazepam is administered to stop seizures. The rat is allowed to spontaneously recover and is given food and water ad lib. and maintained on a 12 hour/12 hour light/dusk cycle. Beginning on about day 13-15, the rats develop spontaneous recurrent seizures, which occur at the rate of about 4-5 per week. The rats are videotaped 8 hours per day 5 days per week, and the videotapes are reviewed for behavioral seizures (including head nodding, forelimb clonus, and rearing), which are counted. The animals are watched for two months, permitting evaluation of a sufficient number of seizures. An experimental compound for evaluation can be administered at either of two times: Time 1, on Day 1, after the cessation of status epilepticus but before the onset of SRS; or Time 2, on Day 30, when the rats have been experiencing SRS for about two weeks. […]

[3] = @ 100 mg, i.p., 4 hr after administration

| SMILES | MES 0.5 hr (MES-induced seizure) | MES 4 hr (MES-induced seizure) | PTZ 0.5 hr (PTZ-induced seizure) | PTZ 4 hr (PTZ-induced seizure) | Pilocarpine, activity in words [1] | further results |
| --- | --- | --- | --- | --- | --- | --- |
| O=C(CC(c1ccc2ccccc2n1)N(Cc1ccccc1)Cc1ccccc1)N(Cc1ccccc1)Cc1ccccc1 (stereo not shown) | — | — | — | — | Min. Active |  |
| COC(=O)CC(NC(C)c1ccccc1)c1ccc2ccccc2n1 (stereo not shown) | — | — | — | — | Active |  |
| COC(=O)CC(NC(C)c1ccccc1)c1ccc2c(c1)cc(C)n2S(=O)(=O)c1ccccc1 (stereo not shown) |  |  |  |  | Active |  |
| NC(CC(=O)O)c1cccs1 (stereo not shown) | — | — | — | — | Active |  |
| NC(CC(=O)O)c1ccc2c(c1)OCCO2 (stereo not shown) |  |  |  |  | Min. Active |  |
| CC(NC(CC(=O)O)c1ccc2ccccc2n1)c1ccccc1 (stereo not shown) |  |  |  |  | Active |  |
| COC(=O)CC(NC(C)c1ccccc1)c1cc2ccccc2o1 (stereo not shown) | — | — |  |  | Active | PTZ 4 hr, fraction of animals (PTZ-induced seizure; [3]): 1/5 @ 100 mg; PTZ 0.5 hr, fraction of animals (PTZ-induced seizure; @ 300 mg, i.p., 0.5 hr after administration): 2/5 @ 300 mg |
| COC(=O)CC(Nc1ccccc1OC)c1ccc2ccccc2n1 (stereo not shown) |  |  |  |  | Active |  |
| COC(=O)CC(Nc1ccccc1OC)c1cc2ccccc2nc1Cl (stereo not shown) |  |  |  |  | Min. Active |  |
| COC(=O)CC(NC(C)c1ccccc1)c1cnc2ccccc2c1 (stereo not shown) | — | — | — | — | Min. Active |  |
| COC(=O)CC(c1ccc2ccccc2n1)N(Cc1ccccc1)Cc1ccccc1 (stereo not shown) | — |  | — | — | Inactive | MES 4 hr, fraction of animals (MES-induced seizure; [3]): 1/3 @ 100 mg |
| O=C1NC(=O)C(c2ccccc2)(c2ccccc2)N1 [phenytoin] |  |  |  |  |  | Preventing the onset of seizures (Time 1) ([2]; Time 1 (Day 1, after status epilepticus, before onset of SRS)): ineffective; Effective at decreasing seizure frequency by 50% or more (Time 2) ([2]; Time 2 (Day 30, established SRS)): 75% |
